Measurements: US20250221410A1, “SUBSTITUTED 2-C-AZINES AND SALTS THEREOF, AND USE THEREOF AS HERBICIDAL ACTIVE SUBSTANCES” (BAYER AKTIENGESELLSCHAFT, priority 2022, published 2025)

Legend:
Type in all cases: in vivo
POAAN: Poa annua [1] = assay: Pre-emergence herbicide efficacy at 1280 g/ha, POAAN; conditions: visual scoring after about 3 weeks vs untreated controls
From the text: (§1) Seeds of mono- and dicotyledonous weed plants were placed in plastic pots in sandy loam soil (doubly sown with one species each of mono- or dicotyledonous weed plants per pot) and covered with soil. The compounds of the invention, formulated in the form of wettable powders (WP) or as emulsion concentrates (EC), were then applied to the surface of the covering soil as aqueous suspension or emulsion with addition of 0.5% additive at a water application rate of 600 litres per hectare (converted). After the treatment, the pots were placed in a greenhouse and kept under good growth conditions for the test plants. After about 3 weeks, the efficacy of the preparations was scored visually in comparison with untreated controls as percentages. For example, 100% activity=the plants have died, 0% activity=like control plants. Tables C1 to C12 below show the effects of selected compounds of the general formula (I) according to Table 1 on various harmful plants and at an application rate corresponding to 1280 g/ha, which were obtained by the trial procedure specified above.

VERPE: Veronica persica = assay: Post-emergence herbicidal efficacy at 1280 g/ha, VERPE; conditions: visual rating about 3 weeks after treatment vs untreated controls
Protocol: (§2) Seeds of mono- and dicotyledonous weed plants were placed in plastic pots in sandy loam soil (doubly sown with in each case one species of mono- or dicotyledonous weed plants per pot), covered with soil and cultivated in a greenhouse under controlled growth conditions. 2 to 3 weeks after sowing, the test plants were treated at the one-leaf stage. The compounds of the invention, formulated in the form of wettable powders (WP) or as emulsion concentrates (EC), were applied to the green parts of the plants as aqueous suspension or emulsion with addition of 0.5% additive at a water application rate equivalent to 600 litres per hectare. After the test plants had been kept in the greenhouse under optimum growth conditions for about 3 weeks, the activity of the preparations was rated visually in comparison to untreated controls. For example, 100% activity=the plants have died, 0% activity=like control plants. Tables A1 to A12 below show the effects of selected compounds of the general formula (I) according to Table 1 on various harmful plants and at an application rate corresponding to 1280 g/ha, which were obtained by the trial procedure specified above.

POAAN: Poa annua [2] = assay: Post-emergence herbicidal efficacy at 1280 g/ha, POAAN; conditions: visual rating about 3 weeks after treatment vs untreated controls
Protocol: as §2

[3] = tested on: AMARE: Amaranthus retroflexus; assay: Post-emergence herbicidal efficacy at 1280 g/ha, AMARE; conditions: rated visually after about 3 weeks vs untreated controls, 100% = plants have died, 0% = like control plants
Protocol: as §2

[4] = tested on: AMARE: Amaranthus retroflexus; assay: Pre-emergence herbicide efficacy at 1280 g/ha, AMARE; conditions: visual scoring after about 3 weeks vs untreated controls
From the text: as §1

STEME: Stellaria media [5] = assay: Pre-emergence herbicide efficacy at 1280 g/ha, STEME; conditions: visual scoring vs untreated controls
From the text: as §1

STEME: Stellaria media [6] = assay: Post-emergence herbicidal efficacy at 1280 g/ha, STEME; conditions: visual rating about 3 weeks after treatment vs untreated controls
Protocol: as §2

KCHSC: Kochia scoparia = assay: Post-emergence herbicidal efficacy at 1280 g/ha, KCHSC; conditions: visual rating about 3 weeks after treatment vs untreated controls
Protocol: as §2

[7] = tested on: ABUTH: Abutilon theophrasti; assay: Post-emergence herbicidal efficacy at 1280 g/ha, ABUTH; conditions: rated visually after about 3 weeks vs untreated controls, 100% = plants have died, 0% = like control plants
Protocol: as §2

[8] = tested on: DIGSA: Digitaria sanguinalis; assay: Pre-emergence herbicide efficacy at 1280 g/ha, DIGSA; conditions: visual scoring after about 3 weeks vs untreated controls
From the text: as §1

N#CC(c1ncc(F)cn1)c1ccccc1-c1ccc(F)c(F)c1 (stereo not drawn) [Example 1-79]
Pre-emergence efficacy against POAAN (POAAN: Poa annua [1]): 90%

FC(F)(F)CCCc1ccccc1Cc1ccc(Cl)cn1 [Example 1-94]
Post-emergence efficacy against VERPE (VERPE: Veronica persica): 100% | Post-emergence efficacy against POAAN (POAAN: Poa annua [2]): 90% | Post-emergence efficacy at 1280 g/ha against AMARE in % [3]: 90%

N#CC(c1ncc(Cl)cn1)c1cccc(F)c1Oc1ccc(F)cc1 (stereo not drawn) [Example 1-34, (5-Chloropyrimidin-2-yl)[3-fluoro-2-(4-fluorophenoxy)phenyl]acetonitrile]
Post-emergence efficacy against VERPE (VERPE: Veronica persica): 100% | Pre-emergence efficacy against AMARE [4]: 90% | Pre-emergence efficacy against STEME in % (STEME: Stellaria media [5]): 90% | Post-emergence efficacy at 1280 g/ha against AMARE in % [3]: 90% | Post-emergence efficacy against STEME (STEME: Stellaria media [6]): 90%

Fc1cnc(Cc2ccccc2CCCC(F)(F)F)nc1 [Example 1-3]
Post-emergence efficacy against VERPE (VERPE: Veronica persica): 90% | Post-emergence efficacy against KCHSC (KCHSC: Kochia scoparia): 90% | Post-emergence efficacy against POAAN (POAAN: Poa annua [2]): 100% | Post-emergence efficacy at 1280 g/ha against ABUTH in % [7]: 90% | Post-emergence efficacy at 1280 g/ha against AMARE in % [3]: 90% | Post-emergence efficacy against STEME (STEME: Stellaria media [6]): 90%

N#CC(c1ncc(Cl)cn1)c1ccccc1CCCC(F)(F)F (stereo not drawn) [Example 1-68]
Post-emergence efficacy at 1280 g/ha against AMARE in % [3]: 100%

Fc1ccc(-c2ccccc2Cc2ccc(Cl)cn2)cc1F [Example 1-97]
Post-emergence efficacy against VERPE (VERPE: Veronica persica): 100% | Post-emergence efficacy against KCHSC (KCHSC: Kochia scoparia): 100% | Post-emergence efficacy against POAAN (POAAN: Poa annua [2]): 100% | Pre-emergence efficacy against AMARE [4]: 100% | Post-emergence efficacy at 1280 g/ha against ABUTH in % [7]: 100% | Post-emergence efficacy at 1280 g/ha against AMARE in % [3]: 100% | Post-emergence efficacy against STEME (STEME: Stellaria media [6]): 90%

N#CC(c1ncc(Cl)cn1)c1ccccc1-c1ccc(F)c(F)c1 (stereo not drawn) [Example 1-78]
Pre-emergence efficacy against POAAN (POAAN: Poa annua [1]): 90% | Post-emergence efficacy at 1280 g/ha against AMARE in % [3]: 90%

COc1cccc(C(C#N)c2ncc(Cl)cn2)c1Oc1ccc(F)cc1 (racemic) [Example 1-32]
Post-emergence efficacy against VERPE (VERPE: Veronica persica): 90% | Pre-emergence efficacy against AMARE [4]: 90% | Post-emergence efficacy at 1280 g/ha against AMARE in % [3]: 90% | Post-emergence efficacy against STEME (STEME: Stellaria media [6]): 90%

N#CC(c1ncc(Cl)cn1)c1cccc(Br)c1Oc1ccc(F)cc1 (racemic) [Example 1-36]
Post-emergence efficacy against VERPE (VERPE: Veronica persica): 90%

Cc1cccc(C(C#N)c2ncc(Cl)cn2)c1Oc1ccc(F)cc1 (racemic) [Example 1-30]
Post-emergence efficacy against VERPE (VERPE: Veronica persica): 90%

N#Cc1cccc(C(C#N)c2ncc(Cl)cn2)c1-n1cc(C(F)(F)F)cn1 (stereo not drawn) [Example 1-71]
Post-emergence efficacy against VERPE (VERPE: Veronica persica): 90% | Post-emergence efficacy against KCHSC (KCHSC: Kochia scoparia): 100% | Pre-emergence efficacy against AMARE [4]: 100% | Pre-emergence efficacy against STEME in % (STEME: Stellaria media [5]): 90% | Post-emergence efficacy at 1280 g/ha against AMARE in % [3]: 100% | Post-emergence efficacy against STEME (STEME: Stellaria media [6]): 90%

N#CC(c1ncc(F)cn1)c1ccccc1CCCC(F)(F)F (stereo not drawn) [Example 1-72]
Pre-emergence efficacy against POAAN (POAAN: Poa annua [1]): 90%

Fc1cnc(Cc2ccccc2SCCC(F)(F)F)nc1 [Example 1-111]
Post-emergence efficacy against VERPE (VERPE: Veronica persica): 100% | Post-emergence efficacy against KCHSC (KCHSC: Kochia scoparia): 100% | Post-emergence efficacy against POAAN (POAAN: Poa annua [2]): 100% | Pre-emergence efficacy against DIGSA [8]: 90% | Pre-emergence efficacy against AMARE [4]: 100% | Post-emergence efficacy at 1280 g/ha against ABUTH in % [7]: 90% | Post-emergence efficacy at 1280 g/ha against AMARE in % [3]: 100% | Post-emergence efficacy against STEME (STEME: Stellaria media [6]): 100%

N#CC(c1ccc(Cl)cn1)c1ccccc1CCCC(F)(F)F (stereo not drawn) [Example 1-73]
Post-emergence efficacy against VERPE (VERPE: Veronica persica): 90% | Pre-emergence efficacy against AMARE [4]: 90% | Post-emergence efficacy at 1280 g/ha against AMARE in % [3]: 90%

N#CC(c1ncc(Cl)cn1)c1ccccc1-n1cc(C(F)(F)F)cn1 (racemic) [Example 1-41]
Post-emergence efficacy against VERPE (VERPE: Veronica persica): 90% | Post-emergence efficacy against POAAN (POAAN: Poa annua [2]): 90% | Post-emergence efficacy at 1280 g/ha against ABUTH in % [7]: 90% | Pre-emergence efficacy against POAAN (POAAN: Poa annua [1]): 90% | Post-emergence efficacy at 1280 g/ha against AMARE in % [3]: 90%
